Measured values published in patent publication US20240132484A1, “BROAD SPECTRUM ANTIVIRAL COMPOUNDS TARGETING THE SKI COMPLEX” (priority 2020, published 2024).
Values joined by “and” are separate entries in the source; they are usually repeats but may differ in a detail not shown here. Equal entries are not always repeated. Where two headings read alike, the source gives them in different places.

How the values were obtained:
[1] = system: cells (nuclei count); conditions: for Relative cell count to DMSO controls, Average 1 μM / Relative cell count to DMSO controls, Average 5 μM / Relative cell count to DMSO controls, Average 10 μM / Relative cell count to DMSO controls, Average 25 μM / Relative cell count to DMSO controls, Average 50 μM: toxicity data, 100=DMSO control; for Toxicity Data, Average, Mean: average of Exp 1-3 (SMW475, SMW477, SMW478); for Relative cell count to DMSO controls, Average (for correlation analysis): average value over the 5 tested concentrations (1 to 50 uM); for Toxicity Data, Average, Mean percentage relative to DMSO control: Average of Exp 1 (SMW491) and Exp 2 (SMW492); for Toxicity Data, Percentage Relative to Appropriate DMSO Control: single well
[2] = system: SARS2; assay type: cell-based, SARS-CoV-2; conditions: for Percentage Infection Relative to Appropriate DMSO Control with Avg Background Subtraction: Greiner Celigo plates; for Percentage Inhibition Average 1 μM / Screening data (Relative infection to DMSO controls) Average 1 μM: SARS2, 1 μM; for Screening data (Relative infection to DMSO controls) Average 1 μM / Screening data (Relative infection to DMSO controls) Average 5 μM / Screening data (Relative infection to DMSO controls) Average 10 μM / Screening data (Relative infection to DMSO controls) Average 25 μM / Screening data (Relative infection to DMSO controls) Average 50 μM / Average (relative infection to DMSO over the 5 tested concentrations): 100=DMSO control; for Percentage Inhibition Average 5 μM / Screening data (Relative infection to DMSO controls) Average 5 μM: SARS2, 5 μM; for Percentage Inhibition Average 10 μM / Screening data (Relative infection to DMSO controls) Average 10 μM: SARS2, 10 μM; for Percentage Inhibition Average 25 μM / Screening data (Relative infection to DMSO controls) Average 25 μM: SARS2, 25 μM; for Percentage Inhibition Average 50 μM / Screening data (Relative infection to DMSO controls) Average 50 μM: SARS2, 50 μM; for Average (relative infection to DMSO over the 5 tested concentrations): SARS2, average over 1 to 50 uM; for Infection Data, Average, Mean: average of Exp 1-3 (SMW475, SMW477, SMW478); for Infection Data, Average, Mean percentage infection relative to DMSO control: Average of Exp 1 (SMW491) and Exp 2 (SMW492); for Infection Data, Percentage Infection Relative to Appropriate DMSO Control: single well, avg background subtraction

SMILES: CCN(CC)CCN(Cc1ccccc1)Cc1ccccn1 [SILCS33]
- Relative cell count to DMSO controls, Average 1 μM [1]: 118.72
- Relative cell count to DMSO controls, Average 5 μM [1]: 94.18
- Relative cell count to DMSO controls, Average 10 μM [1]: 80.17
- Relative cell count to DMSO controls, Average 25 μM [1]: 85.8
- Relative cell count to DMSO controls, Average 50 μM [1]: 59.2
- Toxicity Data, Average, Mean ([1]; n 9, 1 uM): 118.72%
- Toxicity Data, Average, Mean ([1]; n 9, 5 uM): 94.18%
- Toxicity Data, Average, Mean ([1]; n 9, 10 uM): 80.17%
- Toxicity Data, Average, Mean ([1]; n 9, 25 uM): 85.80%
- Toxicity Data, Average, Mean ([1]; n 9, 50 uM): 59.20%
- Relative cell count to DMSO controls, Average (for correlation analysis) [1]: 87.61
- Percentage Infection Relative to Appropriate DMSO Control with Avg Background Subtraction ([2]; Exp 1 (SMW475), 1 uM): 53.62% and 101.44% and 86.72%
- Percentage Infection Relative to Appropriate DMSO Control with Avg Background Subtraction ([2]; Exp 1 (SMW475), 5 uM): 69.33% and 82.60% and 84.98%
- Percentage Infection Relative to Appropriate DMSO Control with Avg Background Subtraction ([2]; Exp 1 (SMW475), 10 uM): 79.81% and 90.19% and 84.97%
- Percentage Infection Relative to Appropriate DMSO Control with Avg Background Subtraction ([2]; Exp 1 (SMW475), 50 uM): 52.39% and 69.09% and 65.56%
- Percentage Infection Relative to Appropriate DMSO Control with Avg Background Subtraction ([2]; Exp 2 (SMW477), 1 uM): 120.88% and 113.91% and 111.55%
- Percentage Infection Relative to Appropriate DMSO Control with Avg Background Subtraction ([2]; Exp 2 (SMW477), 5 uM): 128.80% and 118.55% and 121.74%
- Percentage Infection Relative to Appropriate DMSO Control with Avg Background Subtraction ([2]; Exp 2 (SMW477), 10 uM): 114.36% and 136.38% and 130.63%
- Percentage Infection Relative to Appropriate DMSO Control with Avg Background Subtraction ([2]; Exp 2 (SMW477), 25 uM): 73.62% and 97.76% and 95.99%
- Percentage Infection Relative to Appropriate DMSO Control with Avg Background Subtraction ([2]; Exp 2 (SMW477), 50 uM): 31.41% and 36.50% and 41.52%
- Percentage Infection Relative to Appropriate DMSO Control with Avg Background Subtraction ([2]; Exp 3 (SMW478), 5 uM): 121.27% and 137.96% and 122.71%
- Percentage Infection Relative to Appropriate DMSO Control with Avg Background Subtraction ([2]; Exp 3 (SMW478), 10 uM): 159.81% and 126.46% and 162.16%
- Percentage Infection Relative to Appropriate DMSO Control with Avg Background Subtraction ([2]; Exp 3 (SMW478), 25 uM): 126.24% and 109.99% and 117.46%
- Percentage Infection Relative to Appropriate DMSO Control with Avg Background Subtraction ([2]; Exp 3 (SMW478), 50 uM): 71.82% and 89.49% and 84.99%
- Percentage Inhibition Average 1 μM [2]: 28.78%
- Screening data (Relative infection to DMSO controls) Average 1 μM [2]: 71.22
- Percentage Inhibition Average 5 μM [2]: −9.77%
- Screening data (Relative infection to DMSO controls) Average 5 μM [2]: 109.77
- Percentage Inhibition Average 10 μM [2]: −20.53%
- Screening data (Relative infection to DMSO controls) Average 10 μM [2]: 120.53
- Percentage Inhibition Average 25 μM [2]: 24.68%
- Screening data (Relative infection to DMSO controls) Average 25 μM [2]: 75.32
- Percentage Inhibition Average 50 μM [2]: 39.69%
- Screening data (Relative infection to DMSO controls) Average 50 μM [2]: 60.31
- Average (relative infection to DMSO over the 5 tested concentrations) [2]: 87.43
- Infection Data, Average, Mean ([2]; n 9, 1 uM): 71.22%
- Infection Data, Average, Mean ([2]; n 9, 5 uM): 109.77%
- Infection Data, Average, Mean ([2]; n 9, 10 uM): 120.53%
- Infection Data, Average, Mean ([2]; n 9, 25 uM): 75.32%
- Infection Data, Average, Mean ([2]; n 9, 50 uM): 60.31%

SMILES: COc1ccc(CNCCc2ccccc2F)c(OCC(O)CN2CCN(C)CC2)c1 (stereo not drawn) [SILCS46]
- Relative cell count to DMSO controls, Average 1 μM [1]: 103.33
- Relative cell count to DMSO controls, Average 5 μM [1]: 131.17
- Relative cell count to DMSO controls, Average 10 μM [1]: 126.44
- Relative cell count to DMSO controls, Average 25 μM [1]: 117.77
- Relative cell count to DMSO controls, Average 50 μM [1]: 107.72
- Toxicity Data, Average, Mean percentage relative to DMSO control ([1]; n=4, 1 uM): 103.33%
- Toxicity Data, Average, Mean percentage relative to DMSO control ([1]; n=4, 5 uM): 131.17%
- Toxicity Data, Average, Mean percentage relative to DMSO control ([1]; n=4, 10 uM): 126.44%
- Toxicity Data, Average, Mean percentage relative to DMSO control ([1]; n=4, 25 uM): 117.77%
- Toxicity Data, Average, Mean percentage relative to DMSO control ([1]; n=4, 50 uM): 107.72%
- Toxicity Data, Percentage Relative to Appropriate DMSO Control ([1]; Exp 1 (SMW491), 1 uM): 87% and 86%
- Toxicity Data, Percentage Relative to Appropriate DMSO Control ([1]; Exp 1 (SMW491), 5 uM): 124% and 137%
- Toxicity Data, Percentage Relative to Appropriate DMSO Control ([1]; Exp 1 (SMW491), 10 uM): 126% and 116%
- Toxicity Data, Percentage Relative to Appropriate DMSO Control ([1]; Exp 1 (SMW491), 25 uM): 118% and 101%
- Toxicity Data, Percentage Relative to Appropriate DMSO Control ([1]; Exp 1 (SMW491), 50 uM): 84% and 108%
- Toxicity Data, Percentage Relative to Appropriate DMSO Control ([1]; Exp 2 (SMW492), 1 uM): 100% and 140%
- Toxicity Data, Percentage Relative to Appropriate DMSO Control ([1]; Exp 2 (SMW492), 5 uM): 120% and 143%
- Toxicity Data, Percentage Relative to Appropriate DMSO Control ([1]; Exp 2 (SMW492), 10 uM): 134% and 130%
- Toxicity Data, Percentage Relative to Appropriate DMSO Control ([1]; Exp 2 (SMW492), 25 uM): 117% and 135%
- Toxicity Data, Percentage Relative to Appropriate DMSO Control ([1]; Exp 2 (SMW492), 50 uM): 118% and 121%
- Relative cell count to DMSO controls, Average (for correlation analysis) [1]: 117.29
- SARS2 antiviral activity [2]: lower activity
- Infection Data, Average, Mean percentage infection relative to DMSO control ([2]; n=4, 1 uM): 72.12%
- Infection Data, Average, Mean percentage infection relative to DMSO control ([2]; n=4, 5 uM): 0.77%
- Infection Data, Average, Mean percentage infection relative to DMSO control ([2]; n=4, 10 uM): 21.64%
- Infection Data, Average, Mean percentage infection relative to DMSO control ([2]; n=4, 25 uM): 0.03%
- Infection Data, Average, Mean percentage infection relative to DMSO control ([2]; n=4, 50 uM): 0.84%
- Infection Data, Percentage Infection Relative to Appropriate DMSO Control ([2]; Exp 1 (SMW491), 1 uM): 73.61% and 132.86%
- Infection Data, Percentage Infection Relative to Appropriate DMSO Control ([2]; Exp 1 (SMW491), 5 uM): −0.70% and 0.86%
- Infection Data, Percentage Infection Relative to Appropriate DMSO Control ([2]; Exp 1 (SMW491), 10 uM): −2.65% and −0.77%
- Infection Data, Percentage Infection Relative to Appropriate DMSO Control ([2]; Exp 1 (SMW491), 25 uM): −3.35% and 0.11%
- Infection Data, Percentage Infection Relative to Appropriate DMSO Control ([2]; Exp 1 (SMW491), 50 uM): 2.55% and −4.15%
- Infection Data, Percentage Infection Relative to Appropriate DMSO Control ([2]; Exp 2 (SMW492), 1 uM): 49.01% and 32.97%
- Infection Data, Percentage Infection Relative to Appropriate DMSO Control ([2]; Exp 2 (SMW492), 5 uM): 0.99% and 1.92%
- Infection Data, Percentage Infection Relative to Appropriate DMSO Control ([2]; Exp 2 (SMW492), 10 uM): 47.59% and 42.39%
- Infection Data, Percentage Infection Relative to Appropriate DMSO Control ([2]; Exp 2 (SMW492), 25 uM): 0.98% and 2.39%
- Infection Data, Percentage Infection Relative to Appropriate DMSO Control ([2]; Exp 2 (SMW492), 50 uM): 3.90% and 1.08%
- Percentage Inhibition Average 1 μM [2]: 27.88%
- Screening data (Relative infection to DMSO controls) Average 1 μM [2]: 72.12
- Percentage Inhibition Average 5 μM [2]: 99.23%
- Screening data (Relative infection to DMSO controls) Average 5 μM [2]: 0.77
- Percentage Inhibition Average 10 μM [2]: 78.36%
- Screening data (Relative infection to DMSO controls) Average 10 μM [2]: 21.64
- Percentage Inhibition Average 25 μM [2]: 99.97%
- Screening data (Relative infection to DMSO controls) Average 25 μM [2]: 0.03
- Percentage Inhibition Average 50 μM [2]: 99.16%
- Screening data (Relative infection to DMSO controls) Average 50 μM [2]: 0.84
- Average (relative infection to DMSO over the 5 tested concentrations) [2]: 19.08

SMILES: COc1ccc(-c2[nH]ncc2C(=O)NCC2CCC2)cc1OC [SILCS54]
- Relative cell count to DMSO controls, Average 1 μM [1]: 100.58
- Relative cell count to DMSO controls, Average 5 μM [1]: 101.65
- Relative cell count to DMSO controls, Average 10 μM [1]: 100.51
- Relative cell count to DMSO controls, Average 25 μM [1]: 99.71
- Relative cell count to DMSO controls, Average 50 μM [1]: 88.29
- Relative cell count to DMSO controls, Average (for correlation analysis) [1]: 98.15
- Percentage Inhibition Average 1 μM [2]: 0.61%
- Screening data (Relative infection to DMSO controls) Average 1 μM [2]: 99.39
- Percentage Inhibition Average 5 μM [2]: 7.12%
- Screening data (Relative infection to DMSO controls) Average 5 μM [2]: 92.88
- Percentage Inhibition Average 10 μM [2]: 10.70%
- Screening data (Relative infection to DMSO controls) Average 10 μM [2]: 89.30
- Percentage Inhibition Average 25 μM [2]: −5.10%
- Screening data (Relative infection to DMSO controls) Average 25 μM [2]: 105.10
- Percentage Inhibition Average 50 μM [2]: −13.08%
- Screening data (Relative infection to DMSO controls) Average 50 μM [2]: 113.08
- Average (relative infection to DMSO over the 5 tested concentrations) [2]: 99.95
